With COc1c(NS(=O)(=O)c2ccc(F)cc2)cc(-c2ccc3ncnc(N4CCOCC4)c3c2)cc1C(N)=O the solubility (mole fraction) (in acetone, 288.15 K) was 0.000317, the solubility (mole fraction) (in acetone, 293.15 K) was 0.000317 and the solubility (mole fraction) (in acetone, 298.15 K) was 0.000352. For the same compound, the solubility (mole fraction) (in acetone, 303.15 K) was 0.000419, the solubility (mole fraction) (in acetone, 308.15 K) was 0.000459 and the solubility (mole fraction) (in acetone, 313.15 K) was 0.000526. For the same compound, the solubility (mole fraction) (in acetone, 318.15 K) was 0.000592, the solubility (mole fraction) (in chloroform, 288.15 K) was 0.000145 and the solubility (mole fraction) (in chloroform, 293.15 K) was 0.000158. For the same compound, the solubility (mole fraction) (in chloroform, 298.15 K) was 0.000165, the solubility (mole fraction) (in chloroform, 303.15 K) was 0.000188 and the solubility (mole fraction) (in chloroform, 308.15 K) was 0.000223. For the same compound, the solubility (mole fraction) (in chloroform, 313.15 K) was 0.000258, the solubility (mole fraction) (in chloroform, 318.15 K) was 0.000303 and the solubility (mole fraction) (in chloroform, 323.15 K) was 0.00039. It also gave a solubility (mole fraction) (in chloroform, 328.15 K) of 0.000495, a solubility (mole fraction) (in ethyl acetate, 288.15 K) of 9.51e-05 and a solubility (mole fraction) (in ethyl acetate, 293.15 K) of 0.000101. For the same compound, the solubility (mole fraction) (in ethyl acetate, 298.15 K) was 0.000114, the solubility (mole fraction) (in ethyl acetate, 303.15 K) was 0.000128 and the solubility (mole fraction) (in ethyl acetate, 308.15 K) was 0.00015. It also gave a solubility (mole fraction) (in ethyl acetate, 313.15 K) of 0.000171, a solubility (mole fraction) (in ethyl acetate, 318.15 K) of 0.000196 and a solubility (mole fraction) (in ethyl acetate, 323.15 K) of 0.00022. For the same compound, the solubility (mole fraction) (in ethyl acetate, 328.15 K) was 0.000239, the solubility (mole fraction) (in methanol, 288.15 K) was 0.000238 and the solubility (mole fraction) (in methanol, 293.15 K) was 0.000301. It also gave a solubility (mole fraction) (in methanol, 298.15 K) of 0.00043, a solubility (mole fraction) (in methanol, 303.15 K) of 0.000428 and a solubility (mole fraction) (in methanol, 308.15 K) of 0.000613. For the same compound, the solubility (mole fraction) (in methanol, 313.15 K) was 0.00078, the solubility (mole fraction) (in methanol, 318.15 K) was 0.00102 and the solubility (mole fraction) (in methanol, 323.15 K) was 0.00105. The solubility (mole fraction) (in methanol, 328.15 K) was 0.00125, the solubility (mole fraction) (in toluene, 288.15 K) was 1.05e-05 and the solubility (mole fraction) (in toluene, 293.15 K) was 1.05e-05. It also gave a solubility (mole fraction) (in toluene, 298.15 K) of 1.05e-05, a solubility (mole fraction) (in toluene, 303.15 K) of 1.13e-05 and a solubility (mole fraction) (in toluene, 308.15 K) of 1.31e-05. For the same compound, the solubility (mole fraction) (in toluene, 313.15 K) was 1.53e-05, the solubility (mole fraction) (in toluene, 318.15 K) was 1.67e-05 and the solubility (mole fraction) (in toluene, 323.15 K) was 1.83e-05. It also gave a solubility (mole fraction) (in toluene, 328.15 K) of 2.14e-05, a solubility (mole fraction) (in water, 288.15 K) of 5.21e-07 and a solubility (mole fraction) (in water, 293.15 K) of 8.05e-07. For the same compound, the solubility (mole fraction) (in water, 298.15 K) was 9.14e-07, the solubility (mole fraction) (in water, 303.15 K) was 1.05e-06 and the solubility (mole fraction) (in water, 308.15 K) was 1.16e-06. It also gave a solubility (mole fraction) (in water, 313.15 K) of 1.37e-06, a solubility (mole fraction) (in water, 318.15 K) of 1.5e-06 and a solubility (mole fraction) (in water, 323.15 K) of 1.98e-06. For the same compound, the solubility (mole fraction) (in water, 328.15 K) was 2.44e-06.

In the case of COc1c(NS(=O)(=O)c2ccc(F)cc2)cc(-c2ccc3nccc(N4CCOCC4)c3c2)cc1C(N)=O, the solubility (mole fraction) (in acetone, 288.15 K) is reported as 0.000608, the solubility (mole fraction) (in acetone, 293.15 K) is reported as 0.000638 and the solubility (mole fraction) (in acetone, 298.15 K) is reported as 0.000704. It also gave a solubility (mole fraction) (in acetone, 303.15 K) of 0.000817, a solubility (mole fraction) (in acetone, 308.15 K) of 0.000941 and a solubility (mole fraction) (in acetone, 313.15 K) of 0.00102. The solubility (mole fraction) (in acetone, 318.15 K) was 0.00115, the solubility (mole fraction) (in chloroform, 288.15 K) was 5.21e-05 and the solubility (mole fraction) (in chloroform, 293.15 K) was 5.44e-05. It also gave a solubility (mole fraction) (in chloroform, 298.15 K) of 5.86e-05, a solubility (mole fraction) (in chloroform, 303.15 K) of 6.66e-05 and a solubility (mole fraction) (in chloroform, 308.15 K) of 7.72e-05. The solubility (mole fraction) (in chloroform, 313.15 K) was 9.58e-05, the solubility (mole fraction) (in chloroform, 318.15 K) was 0.000121 and the solubility (mole fraction) (in chloroform, 323.15 K) was 0.000149. It also gave a solubility (mole fraction) (in chloroform, 328.15 K) of 0.000188, a solubility (mole fraction) (in ethyl acetate, 288.15 K) of 9.85e-05 and a solubility (mole fraction) (in ethyl acetate, 293.15 K) of 0.000115. It also gave a solubility (mole fraction) (in ethyl acetate, 298.15 K) of 0.000127, a solubility (mole fraction) (in ethyl acetate, 303.15 K) of 0.000138 and a solubility (mole fraction) (in ethyl acetate, 308.15 K) of 0.00016. It also gave a solubility (mole fraction) (in ethyl acetate, 313.15 K) of 0.000182, a solubility (mole fraction) (in ethyl acetate, 318.15 K) of 0.000187 and a solubility (mole fraction) (in ethyl acetate, 323.15 K) of 0.000183. For the same compound, the solubility (mole fraction) (in ethyl acetate, 328.15 K) was 0.000183, the solubility (mole fraction) (in methanol, 288.15 K) was 0.000259 and the solubility (mole fraction) (in methanol, 293.15 K) was 0.000298. It also gave a solubility (mole fraction) (in methanol, 298.15 K) of 0.000338, a solubility (mole fraction) (in methanol, 303.15 K) of 0.000398 and a solubility (mole fraction) (in methanol, 308.15 K) of 0.000473. It also gave a solubility (mole fraction) (in methanol, 313.15 K) of 0.000518, a solubility (mole fraction) (in methanol, 318.15 K) of 0.000666 and a solubility (mole fraction) (in methanol, 323.15 K) of 0.000829. It also gave a solubility (mole fraction) (in methanol, 328.15 K) of 0.000977, a solubility (mole fraction) (in toluene, 288.15 K) of 5.82e-06 and a solubility (mole fraction) (in toluene, 293.15 K) of 6.02e-06. For the same compound, the solubility (mole fraction) (in toluene, 298.15 K) was 6.59e-06, the solubility (mole fraction) (in toluene, 303.15 K) was 7.29e-06 and the solubility (mole fraction) (in toluene, 308.15 K) was 7.86e-06. It also gave a solubility (mole fraction) (in toluene, 313.15 K) of 9.04e-06, a solubility (mole fraction) (in toluene, 318.15 K) of 1.03e-05 and a solubility (mole fraction) (in toluene, 323.15 K) of 1.23e-05. For the same compound, the solubility (mole fraction) (in toluene, 328.15 K) was 1.4e-05, the solubility (mole fraction) (in water, 288.15 K) was 3.54e-07 and the solubility (mole fraction) (in water, 293.15 K) was 5.68e-07. For the same compound, the solubility (mole fraction) (in water, 298.15 K) was 7.36e-07, the solubility (mole fraction) (in water, 303.15 K) was 8.18e-07 and the solubility (mole fraction) (in water, 308.15 K) was 9.22e-07. The solubility (mole fraction) (in water, 313.15 K) was 1.08e-06, the solubility (mole fraction) (in water, 318.15 K) was 1.28e-06 and the solubility (mole fraction) (in water, 323.15 K) was 1.47e-06. It also gave a solubility (mole fraction) (in water, 328.15 K) of 1.75e-06.

Compound COc1c(NS(=O)(=O)c2ccc(C)cc2)cc(-c2ccc3ncnc(N4CCOCC4)c3c2)cc1C(N)=O has a solubility (mole fraction) (in acetone, 288.15 K) of 0.000635, a solubility (mole fraction) (in acetone, 293.15 K) of 0.000707 and a solubility (mole fraction) (in acetone, 298.15 K) of 0.000798. The solubility (mole fraction) (in acetone, 303.15 K) was 0.001, the solubility (mole fraction) (in acetone, 308.15 K) was 0.00115 and the solubility (mole fraction) (in acetone, 313.15 K) was 0.00141. It also gave a solubility (mole fraction) (in acetone, 318.15 K) of 0.00185, a solubility (mole fraction) (in chloroform, 288.15 K) of 0.0027 and a solubility (mole fraction) (in chloroform, 293.15 K) of 0.00314. The solubility (mole fraction) (in chloroform, 298.15 K) was 0.00346, the solubility (mole fraction) (in chloroform, 303.15 K) was 0.00398 and the solubility (mole fraction) (in chloroform, 308.15 K) was 0.00466. The solubility (mole fraction) (in chloroform, 313.15 K) was 0.00547, the solubility (mole fraction) (in chloroform, 318.15 K) was 0.00637 and the solubility (mole fraction) (in chloroform, 323.15 K) was 0.00717. For the same compound, the solubility (mole fraction) (in chloroform, 328.15 K) was 0.00767, the solubility (mole fraction) (in ethyl acetate, 288.15 K) was 0.000286 and the solubility (mole fraction) (in ethyl acetate, 293.15 K) was 0.000294. For the same compound, the solubility (mole fraction) (in ethyl acetate, 298.15 K) was 0.000302, the solubility (mole fraction) (in ethyl acetate, 303.15 K) was 0.000329 and the solubility (mole fraction) (in ethyl acetate, 308.15 K) was 0.000357. The solubility (mole fraction) (in ethyl acetate, 313.15 K) was 0.000412, the solubility (mole fraction) (in ethyl acetate, 318.15 K) was 0.00045 and the solubility (mole fraction) (in ethyl acetate, 323.15 K) was 0.000535. The solubility (mole fraction) (in ethyl acetate, 328.15 K) was 0.000656, the solubility (mole fraction) (in methanol, 288.15 K) was 0.000832 and the solubility (mole fraction) (in methanol, 293.15 K) was 0.000873. The solubility (mole fraction) (in methanol, 298.15 K) was 0.000919, the solubility (mole fraction) (in methanol, 303.15 K) was 0.00105 and the solubility (mole fraction) (in methanol, 308.15 K) was 0.00123. The solubility (mole fraction) (in methanol, 313.15 K) was 0.00151, the solubility (mole fraction) (in methanol, 318.15 K) was 0.00183 and the solubility (mole fraction) (in methanol, 323.15 K) was 0.00217. It also gave a solubility (mole fraction) (in methanol, 328.15 K) of 0.00267, a solubility (mole fraction) (in toluene, 288.15 K) of 2.41e-05 and a solubility (mole fraction) (in toluene, 293.15 K) of 2.9e-05. For the same compound, the solubility (mole fraction) (in toluene, 298.15 K) was 3.32e-05, the solubility (mole fraction) (in toluene, 303.15 K) was 3.98e-05 and the solubility (mole fraction) (in toluene, 308.15 K) was 4.9e-05. The solubility (mole fraction) (in toluene, 313.15 K) was 5.89e-05, the solubility (mole fraction) (in toluene, 318.15 K) was 7.91e-05 and the solubility (mole fraction) (in toluene, 323.15 K) was 0.000104. For the same compound, the solubility (mole fraction) (in toluene, 328.15 K) was 0.00013, the solubility (mole fraction) (in water, 288.15 K) was 8.31e-07 and the solubility (mole fraction) (in water, 293.15 K) was 1.19e-06. It also gave a solubility (mole fraction) (in water, 298.15 K) of 1.62e-06, a solubility (mole fraction) (in water, 303.15 K) of 2.07e-06 and a solubility (mole fraction) (in water, 308.15 K) of 2.53e-06. The solubility (mole fraction) (in water, 313.15 K) was 2.91e-06, the solubility (mole fraction) (in water, 318.15 K) was 3.2e-06 and the solubility (mole fraction) (in water, 323.15 K) was 3.47e-06. The solubility (mole fraction) (in water, 328.15 K) was 3.75e-06.
